According to US20120214824A1, “PROTEOSTASIS REGULATORS” (priority 2010, published 2012):

Tests used:
GCLM [1] = assay: Multigene assay (QuantiGene Plex 2.0), human HeLa cell line; format: cell-based; conditions: 6 hours post-compound treatment, Table 7
Procedure: (§1) This assay used the QuantiGene Plex 2.0 Reagent System from Affymetrix. This assay combines the use of bDNA (branch DNA) and xMAP magnetic capture beads from Luminex Technologies to quantitatively and simultaneously detect multiple mRNA transcripts per well. The overall procedure was performed according to the QuantiGene Plex 2.0 Reagent System instruction manual from Affymetrix.
(§2) Cells were seeded at a density of 12,000 cells/well in 96-well plates with an overnight incubation at 37° C., 5% CO2. Cells were treated with serially diluted compounds in a 7-point dose dependent manner. Cell lysis with 50% [v/v] Panomics Lysis Mixture (Lysis Mixture+10 μl/ml 25 Proteinase K) was performed 6 hours post-compound treatment. Lysed cells were heated at 50° C. to ensure appropriate lysing and the plates were then frozen at −80° C. Cell lysates, thawed at room temperature on the day of the assay, were pooled with mouse 8-gene multiplex probe sets and with 8 different sets of magnetic capture beads (Luminex Technology, Austin, Tex.) in a 100 μl/well volume. Biomek FX was used at every liquid transfer step. The eight plates containing lysate-probe-bead mixtures were incubated at 54° C.±1° C. on a shaking platform for an overnight incubation in the dark (18-20 hours). The following day the hybridization plates were compressed by transferring the hybridized lysates into a single magnetic capture plate. The plate was kept on a magnet to hold the beads and then washed with Panomics Wash Buffer 2.0 on a BioTek ELx405 select plate washer to remove any unbound sample. This step was followed by serial hybridizations and washings of the bDNA pre-amplifier (1 hour, 50° C.), bDNA amplifier (1 hour, 50° C.), label probe (1 hour, 50° C.), and streptavidin-phycoerythrin (SAPE, 30 minutes, room temperature). (Zhang, A. et al. Small interfering RNA and gene expression analysis using a multiplex branched DNA assay without RNA purification. J Biomol Screen 10, 549-56 (2005)). The plate was then washed with SAPE wash buffer to remove unbound SAPE and each well was analyzed with the Luminex FlexMap3D (Luminex, Austin, Tex.). SAPE fluorescence measured from each bead was proportional to the number of mRNA transcripts captured by the beads (Zheng, Z., Luo, Y. & McMaster, G. K. Sensitive and quantitative measurement of gene expression directly from a small amount of whole blood. Clin Chem 52, 1294-302 (2006)). Fold changes in gene expression were obtained for each gene per well by normalizing the raw data first to the DMSO control and then to a housekeeping gene (TBP-TATA binding protein or Tub1-alpha-tubulin).

HspA5 [2] = assay: as above; format: cell-based; conditions: 6 hours post-compound treatment, Table 7
Procedure: as §1, §2

Hspa1a [3] = assay: as above; format: cell-based; conditions: 6 hours post-compound treatment, Table 7
Procedure: as §1, §2

SQSM = assay: as above; format: cell-based; conditions: 6 hours post-compound treatment, Table 7
Procedure: as §1, §2

HMOX1 = assay: as above; format: cell-based; conditions: 6 hours post-compound treatment, Table 7
DDIT3 [4] = assay: as above; format: cell-based; conditions: 6 hours post-compound treatment, Table 7
firefly luciferase = assay: Luciferase folding assay (Lucif.); format: cell-based, human; conditions: HeLa-luciferase cells; Table 3a
Source text: Firefly luciferase is a commonly used bioluminescent reporter. This monomeric enzyme of 61 kDa catalyzes a two-step oxidation reaction to yield light, usually in the green to yellow region, typically 550-570 nm. The first step of this reaction is activation of the luciferyl carboxylate by ATP to yield a reactive mixed anhydride. In the second step, the activated intermediate reacts with oxygen to create a transient dioxetane that breaks down to the oxidized products, oxyluciferin and CO2. Upon mixing with substrates, firefly luciferase produces an initial burst of light that decays over about 15 seconds to a low level of sustained luminescence. This kinetic profile reflects the slow release of the enzymatic product, thus limiting catalytic turnover after the initial reaction.
This mammalian cell based assay that used firefly luciferase as a sensor was used to screen for compounds that may modulate the cellular folding environment.
HeLa luciferase cell lines: Frozen bullets containing the cells were thawed briefly at 37° C. then placed into a T-150 flask containing 30-35 ml DMEM medium+Penicillin/Strep (1% final+10% FBS (final)+Geneticin @ 200-500 ug/ml. Cell cultures were maintained at 37° C. with 5% CO2 and water in the bottom of the incubator to keep cells healthy. Upon expanding cell line, luciferase measurements were taken to make sure that activity levels were between 2000-5000 (RLU) when plated at 15K/well in a 96-well format (Bright-Glo Promega) before compound treatment.
Compound treatment of HeLa-luciferase cells: HeLa-luciferase WT cells were plated in a 96-well format at 15K/well the day prior to performing compound treatment and/or luciferase assay. […] Final volume used per well was 90 uL. Flat bottom, white polystyrene plates were used for plating the cells.
For compound treatment, stocks of compounds were made up at 10 mM concentration in DMSO. Stocks compounds were diluted by 100× fold in the same media used for culturing the cells—this leads to a 0.1 mM (or 100 uM) concentration. After diluting the compound in media, 10 uL of the 100 uM solution was placed into each well of cells (90 uL); making the final concentration of the compound 10 uM. If serial dilutions of compounds were tested, serial dilutions of compounds were first made in DMSO accordingly, and further diluted in the media, prior to adding to cells. This procedure allowed for constant final levels of DMSO concentrations, regardless of initial compound concentration.
Performing luciferase activity assay: Bright-Glo Luciferase Assay Reagent (Promega cat #: E2610, E2620, E2650) was thawed out at RT in a water bath. Alternatively, Bright-Glo Luciferase assay buffer (prior to mixing with substrate) was stored overnight at RT, prior to using.
Following compound treatment, plates were removed from 37° C. and allowed to acclimate to RT for 5-10 min. Bright-Glo reagent was added to each cell-containing well in a 1:1 ratio (e.g., 100 uL of Bright Glo for each 100 uL cells).
Plates were placed on a plate shaker for 5 min, removing any air bubbles on the surface (which may interfere with proper reads), and then read on an EnVision 2104 Multilabel reader, Emission filter Luminescence 700, barcode 212, WL 400-700 nm.
Data for representative compounds in this assay are shown under the heading “Lucif.”

BCL2 = assay: Multigene assay (QuantiGene Plex 2.0), mouse MEF cell line; format: cell-based; conditions: 6 hours post-compound treatment, Table 3b
Procedure: as §1, §2

DDIT3 [5] = assay: as above; format: cell-based; conditions: 6 hours post-compound treatment, Table 3a
Procedure: as §1, §2

GCLM [6] = assay: as above; format: cell-based; conditions: 6 hours post-compound treatment, Table 3a
Procedure: as §1, §2

HMOX = assay: as above; format: cell-based; conditions: 6 hours post-compound treatment, Table 3b
Procedure: as §1, §2

HSPA1a [7] = assay: as above; format: cell-based; conditions: 6 hours post-compound treatment, Table 3b
Procedure: as §1, §2

HspA5 [8] = assay: as above; format: cell-based; conditions: 6 hours post-compound treatment, Table 3b
Procedure: as §1, §2

TUB1 = assay: as above; format: cell-based; conditions: 6 hours post-compound treatment, Table 3a
Procedure: as §1, §2

Row | Compound | GCLM gene induction (GCLM [1]) | HspA5 gene induction (HspA5 [2]) | HSPA1a gene induction (Hspa1a [3]) | SQSM gene induction (SQSM) | HMOX1 gene induction (HMOX1) | DDIT3 gene induction (DDIT3 [4]) | Lucif (luciferase activity induction) (firefly luciferase) | BCL2 gene induction (BCL2) | DDIT3 gene induction (DDIT3 [5]) | GCLM gene induction (GCLM [6]) | HMOX gene induction (HMOX) | HSPA1a gene induction (HSPA1a [7]) | HspA5 gene induction (HspA5 [8]) | TUB1 gene induction (TUB1)
1 | CC1=C(C#N)C(c2ccccc2OC(C)C)C2=C(CC(c3ccc(Cl)cc3)CC2=O)N1 (centres unmarked) [C] | — (— Indicates less than 2 fold induction) | + (+ indicates a induction of greater than 2 fold) | + (+ indicates a induction of greater than 2 fold) | — (— Indicates less than 2 fold induction) | — (— Indicates less than 2 fold induction) | + (+ indicates a induction of greater than 2 fold) |  |  |  |  |  |  |  | 
2 | CC1=C(C#N)C(c2ccccc2OC(C)C)C2=C(CC(c3ccccc3)CC2=O)N1 (centres unmarked) [D] | — (— Indicates less than 2 fold induction) | — (— Indicates less than 2 fold induction) | + (+ indicates a induction of greater than 2 fold) | — (— Indicates less than 2 fold induction) | + (+ indicates a induction of greater than 2 fold) | — (— Indicates less than 2 fold induction) |  |  |  |  |  |  |  | 
3 | CCCc1n[nH]c2c1C(c1ccccc1Br)C(C#N)=C(N)O2 (centres unmarked) [drawing 28/(CH2)2Me/2-Br] |  |  |  |  |  |  | + (+ indicates a induction of greater than 2 fold) | − (− Indicates less than 2 fold induction) | − (− Indicates less than 2 fold induction) | + (+ indicates a induction of greater than 2 fold) | + (+ indicates a induction of greater than 2 fold) | − (− Indicates less than 2 fold induction) | − (− Indicates less than 2 fold induction) | − (− Indicates less than 2 fold induction)
4 | CCCc1n[nH]c2c1C(c1ccccc1C(F)(F)F)C(C#N)=C(N)O2 (centres unmarked) [drawing 28/(CH2)2Me/2-CF3 #1] |  |  |  |  |  |  | + (+ indicates a induction of greater than 2 fold) | − (− Indicates less than 2 fold induction) | − (− Indicates less than 2 fold induction) | + (+ indicates a induction of greater than 2 fold) | + (+ indicates a induction of greater than 2 fold) | − (− Indicates less than 2 fold induction) | − (− Indicates less than 2 fold induction) | − (− Indicates less than 2 fold induction)
5 | CCCc1n[nH]c2c1C(c1ccccc1C(F)(F)F)C(C#N)=C(N)O2 (centres unmarked) [drawing 28/(CH2)2Me/2-CF3 #2] |  |  |  |  |  |  | + (+ indicates a induction of greater than 2 fold) | − (− Indicates less than 2 fold induction) | − (− Indicates less than 2 fold induction) | + (+ indicates a induction of greater than 2 fold) | + (+ indicates a induction of greater than 2 fold) | − (− Indicates less than 2 fold induction) | − (− Indicates less than 2 fold induction) | − (− Indicates less than 2 fold induction)
6 | CCCc1n[nH]c2c1C(c1cc(Br)ccc1O)C(C#N)=C(N)O2 (centres unmarked) [drawing 28/(CH2)2Me/2-OH-5-Br] |  |  |  |  |  |  | + (+ indicates a induction of greater than 2 fold) | − (− Indicates less than 2 fold induction) | − (− Indicates less than 2 fold induction) | + (+ indicates a induction of greater than 2 fold) | + (+ indicates a induction of greater than 2 fold) | − (− Indicates less than 2 fold induction) | − (− Indicates less than 2 fold induction) | − (− Indicates less than 2 fold induction)
